# Test results from the supplement of paper PMC10307832.
# What was measured:
# Test in all cases: relative viability (nuclei count vs DMSO), 5 days (fraction); higher = more cells survive
# NCI-H650 = system: NCI-H650
# Method in brief: (§1)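 Medians of duplicate plates are given as relative viability. That measure is the nuclei count in treated wells divided by the count in vehicle wells. Counts were taken on 4× images of lung cancer cell lines in 1536-well plates, 5 days after pin-tool dosing the day after seeding with one drug alone or a fixed anchor-drug dose plus five library-drug doses (not always all listed) in √10 steps.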
# CAL-12T = system: CAL-12T
# Method in brief: as §1
# NCI-H596 = system: NCI-H596
# Method in brief: as §1
# EPLC-272H = system: EPLC-272H
# Method in brief: as §1
# NCI-H647 = system: NCI-H647
# Method in brief: as §1
# HOP-62 = system: HOP-62
# Method in brief: as §1
# NCI-H2085 = system: NCI-H2085
# Method in brief: as §1
# NCI-H1563 = system: NCI-H1563
# Method in brief: as §1
# RERF-LC-KJ = system: RERF-LC-KJ
# Method in brief: as §1
# NCI-H1993 = system: NCI-H1993
# Method in brief: as §1
# COR-L 105 = system: COR-L 105
# Method in brief: as §1
# NCI-H2087 = system: NCI-H2087
# Method in brief: as §1
# NCI-H1975 = system: NCI-H1975
# Method in brief: as §1
# PC-14 = system: PC-14
# Method in brief: as §1
# NCI-H1651 = system: NCI-H1651
# Method in brief: as §1
# NCI-H3122 = system: NCI-H3122
# Method in brief: as §1
# NCI-H1395 = system: NCI-H1395
# Method in brief: as §1
# LXF-289 = system: LXF-289
# Method in brief: as §1
# NCI-H2023 = system: NCI-H2023
# Method in brief: as §1
# COR-L23 = system: COR-L23
# Method in brief: as §1
# SK-MES-1 = system: SK-MES-1
# Method in brief: as §1
# A-427 = system: A-427
# Method in brief: as §1
# NCI-H2170 = system: NCI-H2170
# Method in brief: as §1
smiles,measurement,setting,value
CCCCCCCCCCCC1=C(O)C(=O)C=C(O)C1=O [Embelin] + CS(=O)(=O)CCNCc1ccc(-c2ccc3ncnc(Nc4ccc(OCc5cccc(F)c5)c(Cl)c4)c3c2)o1 [Lapatinib] (partner 2 µM),relative viability,NCI-H650; first compound 0.08 µM,0.677
same,relative viability,NCI-H650; first compound 0.8 µM,1.47
same,relative viability,NCI-H650; first compound 2.53 µM,0.831
same,relative viability,NCI-H650; first compound 8 µM,0.658
same,relative viability,CAL-12T; first compound 0.08 µM,0.757
same,relative viability,CAL-12T; first compound 0.8 µM,0.878
same,relative viability,CAL-12T; first compound 8 µM,0.703
same,relative viability,NCI-H596; first compound 0.08 µM,1.17
same,relative viability,NCI-H596; first compound 0.8 µM,1.07
same,relative viability,NCI-H596; first compound 2.53 µM,1.12
same,relative viability,NCI-H596; first compound 8 µM,1.17
same,relative viability,EPLC-272H; first compound 0.08 µM,0.899
same,relative viability,EPLC-272H; first compound 0.8 µM,1.38
same,relative viability,EPLC-272H; first compound 2.53 µM,1.01
same,relative viability,EPLC-272H; first compound 8 µM,0.816
same,relative viability,NCI-H647; first compound 0.08 µM,1.08
same,relative viability,NCI-H647; first compound 0.8 µM,1.38
same,relative viability,NCI-H647; first compound 2.53 µM,1.89
same,relative viability,NCI-H647; first compound 8 µM,1.17
same,relative viability,HOP-62; first compound 0.08 µM,1.01
same,relative viability,HOP-62; first compound 0.8 µM,1.08
same,relative viability,HOP-62; first compound 2.53 µM,1.1
same,relative viability,HOP-62; first compound 8 µM,0.908
same,relative viability,NCI-H2085; first compound 0.08 µM,0.743
same,relative viability,NCI-H2085; first compound 0.8 µM,0.92
same,relative viability,NCI-H2085; first compound 2.53 µM,0.778
same,relative viability,NCI-H2085; first compound 8 µM,0.731
same,relative viability,NCI-H1563; first compound 0.08 µM,0.869
same,relative viability,NCI-H1563; first compound 0.8 µM,1.11
same,relative viability,NCI-H1563; first compound 2.53 µM,0.838
same,relative viability,NCI-H1563; first compound 8 µM,0.839
same,relative viability,RERF-LC-KJ; first compound 0.08 µM,0.81
same,relative viability,RERF-LC-KJ; first compound 0.8 µM,0.935
same,relative viability,RERF-LC-KJ; first compound 2.53 µM,0.991
same,relative viability,RERF-LC-KJ; first compound 8 µM,0.84
same,relative viability,NCI-H1993; first compound 0.08 µM,0.845
same,relative viability,NCI-H1993; first compound 0.8 µM,0.777
same,relative viability,NCI-H1993; first compound 2.53 µM,0.803
same,relative viability,NCI-H1993; first compound 8 µM,0.834
same,relative viability,COR-L 105; first compound 0.08 µM,0.356
same,relative viability,COR-L 105; first compound 0.8 µM,0.436
same,relative viability,COR-L 105; first compound 2.53 µM,0.384
same,relative viability,COR-L 105; first compound 8 µM,0.391
same,relative viability,NCI-H2087; first compound 0.08 µM,1.07
same,relative viability,NCI-H2087; first compound 0.8 µM,1.02
same,relative viability,NCI-H2087; first compound 2.53 µM,1.2
same,relative viability,NCI-H2087; first compound 8 µM,1.23
same,relative viability,NCI-H1975; first compound 0.08 µM,0.807
same,relative viability,NCI-H1975; first compound 0.8 µM,0.951
same,relative viability,NCI-H1975; first compound 2.53 µM,1.09
same,relative viability,NCI-H1975; first compound 8 µM,0.872
same,relative viability,PC-14; first compound 0.08 µM,0.391
same,relative viability,PC-14; first compound 0.8 µM,0.355
same,relative viability,PC-14; first compound 2.53 µM,0.347
same,relative viability,PC-14; first compound 8 µM,0.353
same,relative viability,NCI-H1651; first compound 0.08 µM,0.789
same,relative viability,NCI-H1651; first compound 0.8 µM,0.974
same,relative viability,NCI-H1651; first compound 2.53 µM,0.99
same,relative viability,NCI-H1651; first compound 8 µM,0.824
same,relative viability,NCI-H3122; first compound 0.08 µM,1.02
same,relative viability,NCI-H3122; first compound 0.8 µM,0.977
same,relative viability,NCI-H3122; first compound 2.53 µM,0.956
same,relative viability,NCI-H3122; first compound 8 µM,1.09
same,relative viability,NCI-H1395; first compound 0.08 µM,1.11
same,relative viability,NCI-H1395; first compound 0.8 µM,1.27
same,relative viability,NCI-H1395; first compound 2.53 µM,0.99
same,relative viability,NCI-H1395; first compound 8 µM,0.754
same,relative viability,LXF-289; first compound 0.08 µM,0.961
same,relative viability,LXF-289; first compound 0.8 µM,0.882
same,relative viability,LXF-289; first compound 2.53 µM,0.978
same,relative viability,LXF-289; first compound 8 µM,0.936
same,relative viability,NCI-H2023; first compound 0.08 µM,0.837
same,relative viability,NCI-H2023; first compound 0.8 µM,0.979
same,relative viability,NCI-H2023; first compound 2.53 µM,0.838
same,relative viability,NCI-H2023; first compound 8 µM,0.477
same,relative viability,COR-L23; first compound 0.08 µM,0.927
same,relative viability,COR-L23; first compound 0.8 µM,0.966
same,relative viability,COR-L23; first compound 2.53 µM,1.34
same,relative viability,COR-L23; first compound 8 µM,1.09
same,relative viability,SK-MES-1; first compound 0.08 µM,0.496
same,relative viability,SK-MES-1; first compound 0.8 µM,0.496
same,relative viability,SK-MES-1; first compound 2.53 µM,0.516
same,relative viability,SK-MES-1; first compound 8 µM,0.477
same,relative viability,A-427; first compound 0.08 µM,1.07
same,relative viability,A-427; first compound 0.8 µM,1.05
same,relative viability,A-427; first compound 2.53 µM,1.2
same,relative viability,A-427; first compound 8 µM,0.947
same,relative viability,NCI-H2170; first compound 0.08 µM,0.276
same,relative viability,NCI-H2170; first compound 0.8 µM,0.282
same,relative viability,NCI-H2170; first compound 2.53 µM,0.275
same,relative viability,NCI-H2170; first compound 8 µM,0.253
